In series [1] the test system is RS. The experiment in a line: RS test. The method, then:
(§1) This example provides results of four tests that were conducted on certain illustrative non-natural amino acids as an aid for predicting their properties for incorporation into non-natural amino acid polypeptides.

Series [2] can be described thus: Oxime stability pH 4-8 (testing non-natural amino acids). The series is classed as physicochemical. On the procedure:
as §1

`CC(=O)c1ccc(C[C@H](N)C(=O)O)cc1`: the RS test result in series [1] is given as “√”.

On to `CC(=O)CC(=O)c1ccc(C[C@H](N)C(=O)O)cc1`, for which the RS test entry in series [1] was “Meta- bolized”.

`N[C@@H](Cc1ccc2c(c1)NC(=O)C2=O)C(=O)O`: in series [2], the “Oxime Stability pH 4-8” value was “— —”.

Consider `CC(=O)N/N=C/c1ccc(C[C@H](N)C(=O)O)cc1`, for which the RS test result in series [1] was “√”.

Source of the values: patent publication US8846876B2, “Compositions containing, methods involving, and uses of non-natural amino acids and polypeptides” (Abrx, Inc., priority 2004, dated 2014).
